According to ChEMBL document CHEMBL1944551, “An integrated computational workflow for efficient and quantitative modeling of renin inhibitors” (Bioorg Med Chem, 2012):

Test: physchem
Settings: octanol/buffer

Row | Compound | logP
1 | CCC(=O)NCc1ccc(Cl)c(CN(C(=O)[C@H]2CNCC(=O)N2c2ccc(OCCCOCc3ccccc3)cc2)C2CC2)c1 | 5.04
2 | CCC(=O)NCc1ccc(Cl)c(CN(C(=O)[C@H]2CNCC(=O)N2c2ccc(OCCCOCc3ccccc3OC)cc2)C2CC2)c1 | 5
3 | CC(=O)NCCc1ccc(Cl)c(CN(C(=O)[C@H]2CNCC(=O)N2c2ccc(COC(=O)c3ccccc3)cc2)C2CC2)c1 | 4.28
4 | CC(=O)NCCc1ccc(Cl)c(CN(C(=O)[C@H]2CNCC(=O)N2c2ccc(OCCCOCc3ccccc3)cc2)C2CC2)c1 | 4.66
5 | COc1ccccc1COCCCOc1ccc(N2C(=O)CNC[C@@H]2C(=O)N(Cc2cc(CCNC(C)=O)ccc2Cl)C2CC2)cc1 | 4.61
6 | COc1ccccc1COCCCOc1ncc(N2C(=O)CNC[C@@H]2C(=O)N(Cc2cc(CCNC(C)=O)ccc2Cl)C2CC2)cn1 | 2.6
7 | CC(=O)NCCc1ccc(Cl)c(CN(C(=O)[C@H]2CNCC(=O)N2c2ccc(CCCOc3cccc(Cl)c3)cc2)C2CC2)c1 | 5.45
8 | CC(=O)NCCc1ccc(Cl)c(CN(C(=O)[C@H]2CNCC(=O)N2c2ccc(CCCOc3c(F)ccc(F)c3F)cc2)C2CC2)c1 | 5.28
9 | CNC(=O)OCc1ccc(Cl)c(CN(C(=O)[C@H]2CNCC(=O)N2c2ccc(CCCOc3c(F)ccc(F)c3F)cc2)C2CC2)c1 | 5.48
10 | COC(=O)NCCc1ccc(Cl)c(CN(C(=O)[C@H]2CNCC(=O)N2c2ccc(OCCOc3c(Cl)cc(C)cc3Cl)cc2)C2CC2)c1 | 5.67
11 | COC(=O)NCCc1ccc(Cl)c(CN(C(=O)[C@H]2CNCC(=O)N2c2ccc(OCCOc3c(Cl)cc(C)cc3Cl)nc2)C2CC2)c1 | 4.84
12 | COC(=O)NCCc1ccc(Cl)c(CN(C(=O)[C@H]2CNCC(=O)N2c2ccc(COC(=O)c3ccccc3)cc2)C2CC2)c1 | 4.57
13 | COC(=O)NCCc1ccc(Cl)c(CN(C(=O)[C@H]2CNCC(=O)N2c2ccc(OCCCOCc3ccccc3)cc2)C2CC2)c1 | 4.94
14 | CNC(=O)CCc1ccc(Cl)c(CN(C(=O)[C@H]2CNCC(=O)N2c2ccc(OCCOc3c(Cl)cc(C)cc3Cl)cc2)C2CC2)c1 | 5.34
15 | CNC(=O)CCc1ccc(Cl)c(CN(C(=O)[C@H]2CNCC(=O)N2c2ccc(OCCOc3c(Cl)cc(C)cc3Cl)nc2)C2CC2)c1 | 4.52
16 | CNC(=O)CCc1ccc(Cl)c(CN(C(=O)[C@H]2CNCC(=O)N2c2ccc(COC(=O)c3ccccc3)cc2)C2CC2)c1 | 4.24
17 | CNC(=O)CCc1ccc(Cl)c(CN(C(=O)[C@H]2CNCC(=O)N2c2ccc(OCCCOCc3ccccc3)cc2)C2CC2)c1 | 4.62
18 | CNC(=O)CCc1ccc(Cl)c(CN(C(=O)[C@H]2CNCC(=O)N2c2ccc(OCCCOCc3ccccc3OC)cc2)C2CC2)c1 | 4.57
19 | CNC(=O)CCc1ccc(Cl)c(CN(C(=O)[C@H]2CNCC(=O)N2c2cnc(OCCCOCc3ccccc3OC)nc2)C2CC2)c1 | 2.56
20 | CNC(=O)CCc1ccc(Cl)c(CN(C(=O)[C@H]2CNCC(=O)N2c2ccc(CCCOc3cccc(Cl)c3)cc2)C2CC2)c1 | 5.42
21 | CNC(=O)CCc1ccc(Cl)c(CN(C(=O)[C@H]2CNCC(=O)N2c2ccc(CCCOc3c(F)ccc(F)c3F)cc2)C2CC2)c1 | 5.24
22 | CCC(=O)NCc1ccc(Cl)c(CN(C(=O)[C@H]2CNCC(=O)N2c2cnc(OCCCOCc3ccccc3OC)nc2)C2CC2)c1 | 2.98
23 | CCC(=O)NCc1ccc(Cl)c(CN(C(=O)[C@H]2CNCC(=O)N2c2ccc(CCCOc3cccc(Cl)c3)cc2)C2CC2)c1 | 5.84
24 | CCC(=O)NCc1ccc(Cl)c(CN(C(=O)[C@H]2CNCC(=O)N2c2ccc(CCCOc3c(F)ccc(F)c3F)cc2)C2CC2)c1 | 5.67

Row | Compound | logP
25 | Cc1cc(Cl)c(OCCOc2ccc(N3C(=O)CNC[C@@H]3C(=O)N(Cc3cc(CC(=O)NC4CC4)ccc3Cl)C3CC3)cc2)c(Cl)c1 | 5.91
26 | Cc1cc(Cl)c(OCCOc2ccc(N3C(=O)CNC[C@@H]3C(=O)N(Cc3cc(CC(=O)NC4CC4)ccc3Cl)C3CC3)cn2)c(Cl)c1 | 5.08
27 | O=C(Cc1ccc(Cl)c(CN(C(=O)[C@H]2CNCC(=O)N2c2ccc(COC(=O)c3ccccc3)cc2)C2CC2)c1)NC1CC1 | 4.81
28 | O=C(Cc1ccc(Cl)c(CN(C(=O)[C@H]2CNCC(=O)N2c2ccc(OCCCOCc3ccccc3)cc2)C2CC2)c1)NC1CC1 | 5.18
29 | COc1ccccc1COCCCOc1ccc(N2C(=O)CNC[C@@H]2C(=O)N(Cc2cc(CC(=O)NC3CC3)ccc2Cl)C2CC2)cc1 | 5.14
30 | COc1ccccc1COCCCOc1ncc(N2C(=O)CNC[C@@H]2C(=O)N(Cc2cc(CC(=O)NC3CC3)ccc2Cl)C2CC2)cn1 | 3.13
31 | COc1ccccc1COCCCOc1ccc(N2C(=O)CNC[C@@H]2C(=O)N(Cc2cc(CNCC(F)F)ccc2Cl)C2CC2)cc1 | 5.29
32 | CCNC(=O)Cc1ccc(Cl)c(CN(C(=O)[C@H]2CNCC(=O)N2c2ccc(OCCOc3c(Cl)cc(C)cc3Cl)cc2)C2CC2)c1 | 5.6
33 | CCNC(=O)Cc1ccc(Cl)c(CN(C(=O)[C@H]2CNCC(=O)N2c2ccc(OCCOc3c(Cl)cc(C)cc3Cl)nc2)C2CC2)c1 | 4.77
34 | CCNC(=O)Cc1ccc(Cl)c(CN(C(=O)[C@H]2CNCC(=O)N2c2ccc(COC(=O)c3ccccc3)cc2)C2CC2)c1 | 4.49
35 | CCNC(=O)Cc1ccc(Cl)c(CN(C(=O)[C@H]2CNCC(=O)N2c2ccc(OCCCOCc3ccccc3)cc2)C2CC2)c1 | 4.87
36 | CCNC(=O)Cc1ccc(Cl)c(CN(C(=O)[C@H]2CNCC(=O)N2c2ccc(OCCCOCc3ccccc3OC)cc2)C2CC2)c1 | 4.82
37 | CCNC(=O)Cc1ccc(Cl)c(CN(C(=O)[C@H]2CNCC(=O)N2c2cnc(OCCCOCc3ccccc3OC)nc2)C2CC2)c1 | 2.81
38 | O=C(Cc1ccc(Cl)c(CN(C(=O)[C@H]2CNCC(=O)N2c2ccc(CCCOc3cccc(Cl)c3)cc2)C2CC2)c1)NC1CC1 | 5.98
39 | O=C(Cc1ccc(Cl)c(CN(C(=O)[C@H]2CNCC(=O)N2c2ccc(CCCOc3c(F)ccc(F)c3F)cc2)C2CC2)c1)NC1CC1 | 5.8
40 | Cc1cc(Cl)c(OCCOc2ccc(N3C(=O)CNC[C@@H]3C(=O)N(Cc3cc(CNC(=O)C4CC4)ccc3Cl)C3CC3)cc2)c(Cl)c1 | 5.65
41 | Cc1cc(Cl)c(OCCOc2ccc(N3C(=O)CNC[C@@H]3C(=O)N(Cc3cc(CNC(=O)C4CC4)ccc3Cl)C3CC3)cn2)c(Cl)c1 | 4.82
42 | O=C(OCc1ccc(N2C(=O)CNC[C@@H]2C(=O)N(Cc2cc(CNC(=O)C3CC3)ccc2Cl)C2CC2)cc1)c1ccccc1 | 4.54
43 | O=C(NCc1ccc(Cl)c(CN(C(=O)[C@H]2CNCC(=O)N2c2ccc(OCCCOCc3ccccc3)cc2)C2CC2)c1)C1CC1 | 4.92
44 | COc1ccccc1COCCCOc1ccc(N2C(=O)CNC[C@@H]2C(=O)N(Cc2cc(CNC(=O)C3CC3)ccc2Cl)C2CC2)cc1 | 4.87
45 | COc1ccccc1COCCCOc1ncc(N2C(=O)CNC[C@@H]2C(=O)N(Cc2cc(CNC(=O)C3CC3)ccc2Cl)C2CC2)cn1 | 2.86
46 | O=C(NCc1ccc(Cl)c(CN(C(=O)[C@H]2CNCC(=O)N2c2ccc(CCCOc3cccc(Cl)c3)cc2)C2CC2)c1)C1CC1 | 5.72
47 | O=C(NCc1ccc(Cl)c(CN(C(=O)[C@H]2CNCC(=O)N2c2ccc(CCCOc3c(F)ccc(F)c3F)cc2)C2CC2)c1)C1CC1 | 5.54
48 | COc1ccccc1COCCCOc1ncc(N2C(=O)CNC[C@@H]2C(=O)N(Cc2cc(CNCC(F)F)ccc2Cl)C2CC2)cn1 | 3.28

Row | Compound | logP
49 | O=C([C@H]1CNCC(=O)N1c1ccc(CCCOc2cccc(Cl)c2)cc1)N(Cc1cc(CNCC(F)F)ccc1Cl)C1CC1 | 6.14
50 | O=C([C@H]1CNCC(=O)N1c1ccc(CCCOc2c(F)ccc(F)c2F)cc1)N(Cc1cc(CNCC(F)F)ccc1Cl)C1CC1 | 5.96
51 | CC(=O)NCCc1ccc(Cl)c(CN(C(=O)[C@H]2CNCC(=O)N2c2ccc(OCCOc3c(Cl)cc(C)cc3Cl)cc2)C2CC2)c1 | 5.38
52 | CC(=O)NCCc1ccc(Cl)c(CN(C(=O)[C@H]2CNCC(=O)N2c2ccc(OCCOc3c(Cl)cc(C)cc3Cl)nc2)C2CC2)c1 | 4.55
53 | CCNC(=O)Cc1ccc(Cl)c(CN(C(=O)[C@H]2CNCC(=O)N2c2ccc(CCCOc3c(F)ccc(F)c3F)cc2)C2CC2)c1 | 5.49
54 | CNC(=O)OCc1ccc(Cl)c(CN(C(=O)[C@H]2CNCC(=O)N2c2ccc(OCCOc3c(Cl)cc(C)cc3Cl)cc2)C2CC2)c1 | 5.58
55 | CNC(=O)OCc1ccc(Cl)c(CN(C(=O)[C@H]2CNCC(=O)N2c2ccc(OCCOc3c(Cl)cc(C)cc3Cl)nc2)C2CC2)c1 | 4.75
56 | CNC(=O)OCc1ccc(Cl)c(CN(C(=O)[C@H]2CNCC(=O)N2c2ccc(COC(=O)c3ccccc3)cc2)C2CC2)c1 | 4.48
57 | CNC(=O)OCc1ccc(Cl)c(CN(C(=O)[C@H]2CNCC(=O)N2c2ccc(OCCCOCc3ccccc3)cc2)C2CC2)c1 | 4.85
58 | CNC(=O)OCc1ccc(Cl)c(CN(C(=O)[C@H]2CNCC(=O)N2c2ccc(OCCCOCc3ccccc3OC)cc2)C2CC2)c1 | 4.81
59 | CNC(=O)OCc1ccc(Cl)c(CN(C(=O)[C@H]2CNCC(=O)N2c2cnc(OCCCOCc3ccccc3OC)nc2)C2CC2)c1 | 2.8
60 | CNC(=O)OCc1ccc(Cl)c(CN(C(=O)[C@H]2CNCC(=O)N2c2ccc(CCCOc3cccc(Cl)c3)cc2)C2CC2)c1 | 5.65
61 | CC(=O)NCc1ccc(Cl)c(CN(C(=O)[C@H]2CNCC(=O)N2c2ccc(OCCOc3c(Cl)cc(C)cc3Cl)cc2)C2CC2)c1 | 5.29
62 | CC(=O)NCc1ccc(Cl)c(CN(C(=O)[C@H]2CNCC(=O)N2c2ccc(OCCOc3c(Cl)cc(C)cc3Cl)nc2)C2CC2)c1 | 4.47
63 | CC(=O)NCc1ccc(Cl)c(CN(C(=O)[C@H]2CNCC(=O)N2c2ccc(COC(=O)c3ccccc3)cc2)C2CC2)c1 | 4.19
64 | CC(=O)NCc1ccc(Cl)c(CN(C(=O)[C@H]2CNCC(=O)N2c2ccc(OCCCOCc3ccccc3)cc2)C2CC2)c1 | 4.57
65 | COc1ccccc1COCCCOc1ccc(N2C(=O)CNC[C@@H]2C(=O)N(Cc2cc(CNC(C)=O)ccc2Cl)C2CC2)cc1 | 4.52
66 | COc1ccccc1COCCCOc1ncc(N2C(=O)CNC[C@@H]2C(=O)N(Cc2cc(CNC(C)=O)ccc2Cl)C2CC2)cn1 | 2.51
67 | CC(=O)NCc1ccc(Cl)c(CN(C(=O)[C@H]2CNCC(=O)N2c2ccc(CCCOc3cccc(Cl)c3)cc2)C2CC2)c1 | 5.37
68 | CC(=O)NCc1ccc(Cl)c(CN(C(=O)[C@H]2CNCC(=O)N2c2ccc(CCCOc3c(F)ccc(F)c3F)cc2)C2CC2)c1 | 5.19
69 | CCC(=O)NCc1ccc(Cl)c(CN(C(=O)[C@H]2CNCC(=O)N2c2ccc(OCCOc3c(Cl)cc(C)cc3Cl)cc2)C2CC2)c1 | 5.77
70 | CCC(=O)NCc1ccc(Cl)c(CN(C(=O)[C@H]2CNCC(=O)N2c2ccc(OCCOc3c(Cl)cc(C)cc3Cl)nc2)C2CC2)c1 | 4.94
71 | CCC(=O)NCc1ccc(Cl)c(CN(C(=O)[C@H]2CNCC(=O)N2c2ccc(COC(=O)c3ccccc3)cc2)C2CC2)c1 | 4.67
